Test results from article PMC12113347, “Compound 3d Attenuates Metabolic Dysfunction-Associated Steatohepatitis via Peroxisome Proliferator-Activated Receptor Pathway Activation and Inhibition of Inflammatory and Apoptotic Signaling” (Metabolites, 2025).

Legend:
[1] = test system: C57BL/6J male mice; assay: HFD-induced MASH model in mice: serum and liver biochemistry, body and liver weight, histology; assay type: in vivo; conditions: HFD mice; for body weight: 8 weeks of treatment; for serum TG levels: 8 weeks, fenofibrate 100 mg/kg, elafibranor 30 mg/kg, 3d 3, 10, 30 mg/kg; for liver weight/body weight: indicator for evaluating drug toxicity
Method: All animal studies were conducted in accordance with national legislation and local guidelines at the Center for Laboratory Animals in Tianjin University of Science and Technology and approved by the Animal Ethics Committee of Tianjin University of Science and Technology (8 March 2022, Tianjin, China). The C57BL/6J male mice (6 weeks) were purchased from Henan Scribex Biotechnology Co, Ltd (Zhenzhou, China). Following a one-week period of acclimatization, the mice were fed a high-fat diet (HFD) comprising 60% fat (TP23300, Trophic Animal Feed High-Tech Co., Ltd., (Nantong, China)) and a low-fat control diet (TP23302, Trophic Animal Feed High-Tech Co., Ltd., (Nantong, China)) for 16 weeks.
After 16 weeks of continuous feeding on a high-fat diet, key indicators were tested to determine modeling success and drug administration was initiated. The mice were randomly divided into seven groups (n = 10) according to their body weight. The groups were as follows: control group (control diet, 0.5% CMC-Na), model group (HFD, 0.5% CMC-Na), positive control group (HFD, 100 mg/kg Fenofibrate), elafibranor group (HFD, 30 mg/kg), and 3d group (HFD, 3, 10, 30 mg/kg). The experiment was conducted over a period of eight weeks.
After fasting for 12 h, the mice were anaesthetized and blood samples were collected, as were the mice liver tissues. The ileal contents were collected and immediately frozen in liquid nitrogen and then transferred to storage at −80 °C. The blood samples were subjected to centrifugation at 3000 rpm/min for 10 min to obtain supernatant serum, which was stored at −80 °C. The liver tissues were weighed, and a portion of the liver was preserved in 4% paraformaldehyde for subsequent pathological sectioning, including staining with H&E, Masson, and Oil Red O. The remaining samples were stored at −80 °C for testing of various biochemical indices.
The serum levels of TG, total cholesterol (TC), low-density lipoprotein cholesterol (LDL-C), […] aminotransferase (AST), ALT, and TNF-α were determined according to the instructions of the kit. The levels of glutathione (GSH) and superoxide dismutase (SOD) were measured using liver tissue homogenates. The kits were purchased from the Nanjing Jiancheng Institute of Biological Engineering (Nanjing, China).

[2] = in vivo; cited from earlier work
[3] = In vitro stability in DMEM medium, simulated gastric fluid and simulated intestinal fluid (HPLC); assay type: in vitro ADME; conditions: 40 μM, 37 °C
Method: Elafibranor and 3d (40 μM) were dissolved in DMEM medium, as well as in simulated gastric fluid (SGF) and simulated intestinal fluid (SIF), respectively, at 37 °C. The concentration of the compounds was determined within 24 h by HPLC. The HPLC conditions comprised an ACQUITY UPLC BEH C18 column maintained at 40 °C with a mobile phase consisting of 20% ultrapure water and 80% acetonitrile, with a flow rate of 1 mL/min at 360 nm.

Structure (SMILES) | liver steatosis and lipid accumulation (HE, Oil Red O sections) [1] | body weight [1] | serum TG levels [1] | liver weight/body weight [1] | oral bioavailability [2] | concentration in culture medium (stability) ([3]; DMEM, within 24 h) | concentration in gastric fluid (stability) ([3]; SGF) | concentration in intestinal fluid (stability) ([3]; SIF, within 24 h)
CSc1ccc(C(=O)/C=C/c2cc(C)c(OC(C)(C)C(=O)O)c(C)c2)cc1 [elafibranor, Elafibranor, reference compound] | effective in reducing the degree of steatosis and reducing lipid accumulation better than fenofibrate but still could not bring them back to fully normal | decrease in body weight | decreased and returned to normal levels | substantial influence on the rise | around 30% | remained relatively constant | decreased significantly after 60 min | remained relatively constant
CC(C)OC(=O)C(C)(C)Oc1ccc(C(=O)c2ccc(Cl)cc2)cc1 [fenofibrate, Fenofibrate, reference compound] | improved the steatosis and reduced lipid accumulation in the liver to some extent | decrease in body weight | decreased and returned to normal levels | substantial influence on the rise |  |  |  | 
